Experimental data from ChEMBL document CHEMBL4610106, “Identification of the Clinical Development Candidate MRTX849, a Covalent KRASG12C Inhibitor for the Treatment of Cancer” (J Med Chem, 2020).
Values after ≈ are worked out from the molar mass of the structure shown.

Columns and labels:
[1] = Drug metabolism in mouse hepatocytes assessed as peak area for metabolite formed due to biotransformation (dealkylation; glucuronide; GSH) at 10 uM incubated for 2 hrs by LC-MS analysis; type: ADME, cell-based, Hepatocyte
[2] = Drug metabolism in mouse hepatocytes assessed as peak area for metabolite formed due to biotransformation (glucuronide; GSH) at 10 uM incubated for 2 hrs by LC-MS analysis; type: ADME, cell-based, Hepatocyte
[3] = Drug metabolism in mouse hepatocytes assessed as peak area for metabolite formed due to biotransformation (sulfate) at 10 uM incubated for 2 hrs by LC-MS analysis; type: ADME, cell-based, Hepatocyte
[4] = Drug metabolism in mouse hepatocytes assessed as peak area for metabolite formed due to biotransformation (dealkylation; GSH) at 10 uM incubated for 2 hrs by LC-MS analysis; type: ADME, cell-based, Hepatocyte
[5] = Drug metabolism in mouse hepatocytes assessed as peak area for metabolite formed due to biotransformation ( GSH) at 10 uM incubated for 2 hrs by LC-MS analysis; type: ADME, cell-based, Hepatocyte
[6] = Drug metabolism in mouse hepatocytes assessed as peak area for metabolite formed due to biotransformation (dealkylation; glucuronide) at 10 uM incubated for 2 hrs by LC-MS analysis; type: ADME, cell-based, Hepatocyte
[7] = Drug metabolism in mouse hepatocytes assessed as peak area for metabolite formed due to biotransformation (glucuronide) at 10 uM incubated for 2 hrs by LC-MS analysis; type: ADME, cell-based, Hepatocyte
[8] = Clearance in CD1 mouse at 3 mg/kg, iv; type: ADME, organism-based; conditions: in vivo
[9] = Half life in CD1 mouse at 3 mg/kg, iv; type: ADME, organism-based; conditions: in vivo
[10] = Volume of distribution at steady state in CD1 mouse at 3 mg/kg, iv; type: ADME, organism-based; conditions: in vivo, read-out: Vdss
[11] = Protein binding in mouse plasma; type: ADME, cell-free; conditions: read-out: PPB (converted)
[12] = Solubility in FaSSIF at pH 6.5; type: physicochemical
[13] = Apparent permeability in pig LLC-PK1 cells; type: ADME, cell-based, Sus scrofa; conditions: read-out: permeability
[14] = Cmax in CD1 mouse at 30 mg/kg, po; type: ADME, organism-based; design: dose 30 mg/kg, route oral; conditions: in vivo
[15] = Tmax in CD1 mouse at 30 mg/kg, po; type: ADME, organism-based; conditions: in vivo
[16] = AUC (infinity) in CD1 mouse at 30 mg/kg, po; type: ADME, organism-based; design: dose 30 mg/kg, time infinity, route oral; conditions: in vivo
[17] = AUC (infinity) in beagle dog at 30 mg/kg, po; type: ADME, organism-based, Canis lupus familiaris; design: dose 30 mg/kg, route oral, time infinity; conditions: in vivo
[18] = Tmax in beagle dog at 30 mg/kg, po; type: ADME, organism-based, Canis lupus familiaris; conditions: in vivo
[19] = Cmax in beagle dog at 30 mg/kg, po; type: ADME, organism-based, Canis lupus familiaris; design: dose 30 mg/kg, route oral; conditions: in vivo
[20] = Half life in beagle dog at 3 mg/kg, iv; type: ADME, organism-based, Canis lupus familiaris; conditions: in vivo
[21] = Clearance in beagle dog at 3 mg/kg, iv; type: ADME, organism-based, Canis lupus familiaris; conditions: in vivo
[22] = Volume of distribution at steady state in beagle dog at 3 mg/kg, iv; type: ADME, organism-based, Canis lupus familiaris; conditions: in vivo, read-out: Vdss
[23] = Half life in mouse whole blood at 5 uM by LC-MS/MS analysis; type: ADME, tissue-based
[24] = Half life in dog whole blood at 5 uM by LC-MS/MS analysis; type: ADME, tissue-based, Canis lupus familiaris
[25] = Half life in human whole blood at 5 uM by LC-MS/MS analysis; type: ADME, tissue-based
[26] = Protein binding in human plasma; type: ADME, cell-free; conditions: read-out: PPB (converted)
[27] = Half life in rat at 3 mg/kg, iv; type: ADME, organism-based; conditions: in vivo
[28] = Volume of distribution at steady state in rat at 3 mg/kg, iv; type: ADME, organism-based; conditions: in vivo
[29] = Cmax in rat at 30 mg/kg, po; type: ADME, organism-based; design: dose 30 mg/kg, route oral; conditions: in vivo
[30] = Tmax in rat at 30 mg/kg, po; type: ADME, organism-based; conditions: in vivo
[31] = AUC (infinity) in rat at 30 mg/kg, po; type: ADME, organism-based; design: dose 30 mg/kg, time infinity, route oral; conditions: in vivo
[32] = Toxicity in athymic nude-Foxn1nu mouse xenografted with human MIAPaCa2 cells assessed as induction of body weight loss at 10 to 100 mg/kg, po dosed daily via gavage for 16 days; type: organism-based, MIA PaCa-2; conditions: in vivo, 384 h
MIA PaCa-2 = experiment: Antitumor activity against human MIAPaCa2 cells xenografted in athymic nude-Foxn1nu mouse assessed as maximally efficacious dose for induction of tumor regression at 10 to 100 mg/kg, po dosed daily via gavage for 16 days; type: functional
in vivo [33] = conditions: beagle, dog, po, 30 mg/kg
in vivo [34] = conditions: rat, po, 30 mg/kg

For `C=C(F)C(=O)N1CCN(c2nc(OC[C@@H]3CCCN3C)nc3c2CCN(c2cccc4cccc(Cl)c24)C3)C[C@@H]1CC#N` [ADAGRASIB], the Drug metabolism [1] was “Metabolite_Notdetected”, the Drug metabolism [2] was “Metabolite_Notdetected” and the Drug metabolism [3] was “Metabolite_Notdetected”. For the same compound, the Drug metabolism [4] was “Metabolite_Notdetected”, the Drug metabolism [5] was “Metabolite_Notdetected” and the Drug metabolism [6] was “Metabolite_Notdetected”. For the same compound, the Drug metabolism [7] was “Metabolite_Notdetected”, the clearance [8] was 19.9 mL/min/kg and the half-life [9] was 1.51 h. The Vd [10] was 2.02 L/kg, the fraction unbound [11] was 0.01 and the solubility [12] was 568 µg/mL (≈ 940 µM). For the same compound, the Papp [13] was 4.7 ×10⁻⁶ cm/s, the Cmax [14] was 2410 ng/mL and the Tmax [15] was 1 h. The AUC(0-inf) [16] was 15900 ng·h/mL, the AUC(0-inf) [17] was 4470 ng·h/mL and the Tmax [18] was 4 h. For the same compound, the Cmax [19] was 252 ng/mL, the half-life [20] was 7.56 h and the clearance [21] was 29.6 mL/min/kg. The Vd [22] was 17.4 L/kg, the half-life at 5 µM [23] was > 50 h and the half-life at 5 µM [24] was > 50 h. The half-life at 5 µM [25] was > 50 h, the fraction unbound [26] was 0.017 and the t1/2 [27] was 2.57 h. The Vdss [28] was 20.7 L/kg, the Cmax [29] was 209 ng/mL and the Tmax [30] was 2.67 h. The AUC(0-inf) [31] was 2670 ng·h/mL, the Activity [32] was “Non-Toxic” and the Activity (MIA PaCa-2) was 30 to 100 mg/kg. It also gave a bioavailability (in vivo [33]) of 25.9% and a bioavailability (in vivo [34]) of 29.7%.
